Data on four compounds can be found in paper PMC4944145, “New paradigms for understanding and step changes in treating active and chronic, persistent apicomplexan infections” (Scientific Reports, 2016).

The subject of data set [1] is P. falciparum Dd2 parasite lines. In words: P. falciparum whole-cell SYBR Green EC50, Dd2 and cytochrome b mutant / scDHODH lines. It counts as cell-based. The conditions noted are these: Plasmodium falciparum. How it is done: We used the following parasite line from the MR4 repository of the American Type Culture Collection (ATCC): Dd2 (MRA-156). Mutant Dd2 parasites harboring a G33A or G33V substitution in cytochrome b were as reported^S77. Dd2 parasites with a G131S mutation in cytochrome b and transgenic lines expressing a chromosomally integrated copy of the S. cerevisiae DHODH were utilized as previously described^S78. Parasites were cultured by standard methods in RPMI media supplemented with 5% human O^+ serum and 0.25% AlbuMAX® II (Life Technologies 11021–045)^S79.
Drug susceptibility was measured using the SYBR Green method^S75. Twelve point curves based on 2-fold dilutions of the test compound were carried out in triplicate each day and replicated on at least three different days. EC50 values were calculated using a nonlinear regression curve fit in Prism 6.0 for Mac (GraphPad Software, Inc.).

In a further data set the test system is T. gondii cysts. The conditions noted are these: cited from earlier work.
Data set [2] relates to yeast with a mutation in the Qi site. The conditions noted are these: cited from earlier work.
The subject of another data set is P. falciparum. Put plainly: P. falciparum in vitro assay (D6, TM91C235, W2, C2B strains). Type of data set: cell-based. The note with it: Plasmodium falciparum. How it is done:
D6 is a drug sensitive strain from Sierra Leone, C235 is a multi-drug resistant strain from Thailand, W2 is a chloroquine resistant strain from Thailand, and C2B has resistance to a variety of drugs including atovaquone. These assays were performed as described^S74.

Data set [3] has as its system T. gondii bradyzoites (EGS strain). Put plainly: EGS strain bradyzoite (cyst) assay in HFF. Type of data set: cell-based, Toxoplasma gondii. How it is done:
(§1) Vivo-PMO (Vivo porter linked to morpholinos) to knock down cytochrome b and an off-target PPMO (Vivo porter) were utilized at concentrations of 5 and 10 μM as previously described with both cultures of RH-YFP tachyzoites and EGS^S14. Morpholino sequence for cytochrome b/c knockdown is 5′ […] 3′, and for unrelated sequence, off target, is 5′ […]-[…] 3′.
HFF cells were grown in IMDM (1x, [+] glutamine, [+] 25 mM HEPES, [+] Phenol red, 10% FBS, [Gibco, Denmark]) on removable, sterile glass disks in the bottom of a clear, flat-bottomed 24-well plate. Cultures were infected with 3 × 10^4 parasites (EGS strain) per well, in 0.5 mL media and plate was returned to incubator at 37 °C overnight. The following day, the media was removed and clear IMDM and compounds were added to making various concentrations of the drug, to a total volume of 0.5 mL. Two wells were filled with media only, as a control. Plates were returned to the 37 °C incubator for 72 hours.
Efficacy was determined following fixation. Staining was used to determine the numbers of cysts in cultures without and with treatment with the test compounds. Cells were fixed using 4% paraformaldehyde and stained with Fluorescein-labeled Dolichos Biflorus Agglutinin, DAPI, and anti-BAG1, and anti-SAG1. Disks were removed and mounted onto glass slides and visualized using microscopy (Nikon Tl7). Slides were also scanned using a CRi Pannoramic Scan Whole Slide Scanner and viewed using Pannoramic Viewer Software.

Data set [4] deals with T. gondii tachyzoites (RH-YFP strain). Put plainly: T. gondii tachyzoite assay (RH-YFP in HFF, fluorescence). The conditions noted are these: Toxoplasma gondii. It counts as cell-based. How it is done: as §1
Human foreskin fibroblasts (HFF) were cultured on a flat, clear-bottomed, black 96-well plate to 90% to 100% confluence. IMDM (1x, [+] glutamine, [+] 25 mM HEPES, [+] Phenol red, 10% FBS [gibco, Denmark]) was removed from each well and replaced with IMDM-C(1x, [+] glutamine, [+] 25 mM HEPES, [−] Phenol red, 10% FBS)[Gibco, Denmark]). Type I RH parasites expressing Yellow Fluorescent Protein (RH-YFP) were lysed from host cells by double passage through a 27-gauge needle. Parasites were counted and diluted to 32,000/mL in IMDM-C. Fibroblast cultures were infected with 3200 tachyzoites of the Type I RH-YFP strain and returned to incubator at 37 °C for 1–2 hours to allow for infection ^S12–15;S18,19;S25. […] The plates were read using a fluorimeter (Synergy H4 Hybrid Reader, BioTek) To ascertain the amount of yellow fluorescent protein, in relative fluorescence units (RFU), as a measure of parasite burden after treatment. […] Data was collected using Gen5 software and analyzed with Excel.

A short description of data set [5]: Aqueous kinetic solubility PBS pH 7.4.
The test system of data set [6] is S. cerevisiae wild type parental AD1-9 strain. Put plainly: S. cerevisiae growth inhibition (disk), wild type. It counts as cell-based, Saccharomyces cerevisiae. The note with it: glycerol medium, 1mM, 100, 5 and 1 μM. How it is done:
Three S. cerevisiae strains were used: M221Q and M221F cytochrome b mutants and wild type. They share the same nuclear genetic background deriving from AD1–9 (kindly given by M.Ghislain, UCL, Belgium). AD1–9 harbors multiple deletions in the ABC transporter genes that render the strain more sensitive to drugs than standard yeast strains^S65.
Protocol from^S68: Yeast strains were grown over 48 hours at 33 °C in liquid YPG medium [1% yeast extract, 2%(wt/vol) peptone, and 3%(vol/vol) (glycerol). Cultures were diluted to an OD600 of 0.05 and grown for 2 hrs. Cultures were then combined with YPG containing 6% melted agar for a total volume of 15–20 mL and poured onto OmniTray single-well rectangular plates that measured 86 mm by 128 mm (ThermoScientific) . Filter paper disks (7 mm diameter, […]) were placed onto the cooled agar plates. […] A single disk with DMSO on each plate was used as a control. Plates were incubated at 33 °C. Images were obtained after 4 days using GelDoc XR Imaging System (BioRad) and Quantity One software. Drug effect was assessed by the presence and size of a zone of inhibition around the disks.

The nature of data set [7]: HFF toxicity assay (WST-1). It counts as cell-based. The conditions noted are these: human, HFF cells (confluent monolayer). How it is done: Toxicity assays were conducted using WST-1 cell proliferation reagent (Roche) as described^S12–15;S18,19. HFF were grown on a flat, clear-bottomed, black 96-well plate. Confluent HFF were treated with inhibitory compounds at concentrations equal to those being tested in challenge assays. Compounds were diluted in IMDM-C, and 20 μl were added to each designated well, with triplicates for each condition. A gradient of 2 fold-decreasing concentrations of DMSO in clear IMDM-C was used as a control. The plate was incubated for 72 hours at 37 °C. 10 μl of WST-1 reagent (Roche) were added to each well and the cells were incubated for 30 to 60 minutes. Absorbance was read using a fluorometer at 420 nm. A higher degree of color change (and absorbance) indicated mitochondrial activity and cell viability.

A short description of data set [8]: Mouse microsomal stability.
A short description of data set [9]: Human microsomal stability.
The subject of data set [10] is P. falciparum Dd2 parasites. Put plainly: Isobologram, modified fixed ratio drug combinations. It counts as cell-based, Plasmodium falciparum. The conditions noted are these: for interaction in combination with MJM170: Dd2 parasites, synergy combined FIC < 1.0, additivity FIC = 1.0, antagonism FIC > 1.0; for FIC ATV: MJM170 + ATV; for FIC CYG: MJM170 + CYG. How it is done: Isobologram experiments were performed in similar fashion utilizing the modified fixed ratio methodology^S76. […] EC50 values were calculated as above, and FICs were calculated for each drug combination as described^S76. Synergy was defined as an FIC < 1.0, additivity as FIC = 1.0, and antagonism as FIC > 1.0.

Structures are written as SMILES. Values after ≈ are worked out from the molar mass of the structure shown. “Also recorded” adds a separate entry of the source. Where two headings read alike, the source gives them in different places.

`C[C@H]1[C@H](OC(=O)CCC(=O)O)O[C@@H]2O[C@@]3(C)CC[C@H]4[C@H](C)CC[C@@H]1[C@@]24OO3` [Artesunate]: the EC50 in data set [1] (DD2, Dd2) is 2.95 ± 0.94 nM; in [1] (DD2, Dd2-attB), 4.4 ± 2.3 nM; in [1] (DD2, Dd2-scDHODH), 3.97 ± 2.3 nM; in data set [1] (DD2, Dd2: G33A) it was 2.53 ± 0.69 nM; in data set [1] (DD2, Dd2: G33V), 2.08 ± 1.4 nM; in data set [1] (DD2, Dd2: G131S), 3.38 ± 0.48 nM.
`Cc1[nH]c2ccccc2c(=O)c1-c1ccc(Oc2ccc(OC(F)(F)F)cc2)cc1` [ELQ 271] displayed a solubility in the data set “FaSSIF solubility pH 6.5” of 3.4 µM (≈ 1.4 µg/mL). Besides, the “effect on brain cyst numbers in mice” value is listed as “partially reduce cyst numbers in mice” in the data set on T. gondii cysts (mouse model, listed as ELQ271) and “reduce, but not eliminate, brain cyst numbers in mice” in the data set on T. gondii cysts (mouse model; listed as ELQ) 271). Besides, the “activity against yeast with a mutation in the Qi site” value in data set [2] is “ineffective”. Further, the IC50 in the data set with P. falciparum (C2B strain, multi-drug resistant, pronounced resistance to atovaquone) turned out to be 130 nM; in the data set on P. falciparum (D6 strain (Sierra Leone), drug sensitive) it was 30 nM; in the data set on P. falciparum (TM91C235 strain (Thailand), multi-drug resistant), 90 nM; with P. falciparum (W2 strain (Thailand), chloroquine resistant), 100 nM; in data set [3] (Toxoplasma gondii, EGS strain cysts in HFF), 1000 nM; in [4], 30 nM. In addition, in [3], the “effect on EGS bradyzoites in cysts in vitro” value is given as “inhibited EGS in vitro”. Besides, the “effect on EGS cysts in vitro” value in [3] (10 μM) is “reduce the EGS cysts in vitro”. Moreover, the solubility (kinetic) in [5] worked out at 0.15 µM (≈ 0.0617 µg/mL). In data set [6], the “growth inhibition of wild type yeast” value is recorded as “effective”. This compound gave a CC50 at 72 h in data set [7] of 20000 nM. Also, the mouse microsomal stability in data set [8] was greater than 200 min. For the same compound, the half-life was greater than 3.33 h in [8] (mouse, mouse microsomes) and 2.87 h in data set [9] (human, human microsomes). The compound also had a human microsomal stability in [9] (rounded) of 172 min.
Take `O=C1C(O)=C([C@H]2CC[C@H](c3ccc(Cl)cc3)CC2)C(=O)c2ccccc21` [Atovaquone, atovaquone]: the “effect on cyst burden in mice” value in the data set on T. gondii cysts is “partially, and transiently, limits cyst burden in mice”. In addition, the EC50 was 0.461 ± 0.14 nM in data set [1] (DD2, Dd2); 1.11 ± 0.27 nM in [1] (DD2, Dd2-attB); greater than 50 nM in data set [1] (DD2, Dd2-scDHODH); 0.365 ± 0.053 nM in data set [1] (DD2, Dd2: G33A); 3.85 ± 7.1 nM in [1] (DD2, Dd2: G33V); 0.479 ± 0.17 nM in data set [1] (DD2, Dd2: G131S). For the same compound, the “interaction in combination with MJM170” value in data set [10] is given as “Slight synergy; also recorded: modest synergy”; in data set [10] (listed as atovoquone), “modestly synergistic”. Further, the “FIC ATV” value in [10] (ratio 2:8) is 0.82 ± 0.05; in data set [10] (ratio 4:6) it was 0.72 ± 0.1; in data set [10] (ratio 6:4), 0.52 ± 0.1; in data set [10] (ratio 8:2), 0.35 ± 0.06.
For `CC1(C)N=C(N)N=C(N)N1c1ccc(Cl)cc1` [cycloguanil], the “interaction in combination with MJM170” value in data set [10] is given as “additive effect”. Moreover, the “FIC CYG” value in [10] (ratio 2:8) came out at 0.036 ± 0.01; in data set [10] (ratio 4:6), 0.089 ± 0.03; in data set [10] (ratio 6:4), 0.2 ± 0.05; in data set [10] (ratio 8:2), 0.41 ± 0.003.
